Laboratory results reported in ChEMBL document CHEMBL1201862, “PubChem BioAssay data set” (2004).
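Compound exposure: 48 hours, 5 concentrations, 96-well plates. GI50 marks 50% less growth.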 The source made the active and inactive calls. Rule as the data show it: active = GI50 up to about 1.1 µM and inactive = higher.

What was measured:
Experiment in all cases: NCI anticancer screen, dose series, 48 h
CCRF-CEM = tested on: CCRF-CEM
SK-MEL-2 = tested on: SK-MEL-2
DU-145 = tested on: DU-145
EKVX = tested on: EKVX
KM12 = tested on: KM12
OVCAR-3 = tested on: OVCAR-3
SN12C = tested on: SN12C
UACC-62 = tested on: UACC-62
SR = tested on: SR
OVCAR-4 = tested on: OVCAR-4
SF-295 = tested on: SF-295
MOLT-4 = tested on: MOLT-4
IGROV-1 = tested on: IGROV-1
SK-MEL-5 = tested on: SK-MEL-5
M14 = tested on: M14
Malme-3M = tested on: Malme-3M
HT-29 = tested on: HT-29
UO-31 = tested on: UO-31
T47D = tested on: T47D
A498 = tested on: A498

SMILES | GI50 (CCRF-CEM) | GI50 (SK-MEL-2) | GI50 (DU-145) | GI50 (EKVX) | GI50 (KM12) | GI50 (OVCAR-3) | GI50 (SN12C) | GI50 (UACC-62) | GI50 (SR) | GI50 (OVCAR-4) | GI50 (SF-295) | GI50 (MOLT-4) | GI50 (IGROV-1) | GI50 (SK-MEL-5) | GI50 (M14) | GI50 (Malme-3M) | GI50 (HT-29) | GI50 (UO-31) | GI50 (T47D) | GI50 (A498)
C=C1CCC2C(C)(CO)C(O)CCC2(C)C1C/C=C1\C(=O)OCC1O (stereo not given) | 3.87 µM (inactive) | 15.2 µM (inactive) | 38.8 µM (inactive) | 29.3 µM (inactive) | 14.1 µM (inactive) | 9.4 µM (inactive) | 15.2 µM (inactive) | 18.8 µM (inactive) | 1.01 µM (active) | 11.1 µM (inactive) | 19.9 µM (inactive) | 28.2 µM (inactive) | 18.2 µM (inactive) | 14.1 µM (inactive) | 17.8 µM (inactive) | 15.6 µM (inactive) | 5.28 µM (inactive) | 36.3 µM (inactive) | 24.7 µM (inactive) | 32.7 µM (inactive)
O=[N+]([O-])c1ccc(NN/N=N/c2ccc(-c3nc4ccccc4[nH]3)cc2)c([N+](=O)[O-])c1 | 9.04 µM (inactive) | 29 µM (inactive) | 66.1 µM (inactive) | 17.4 µM (inactive) | 31.9 µM (inactive) | 28.4 µM (inactive) | 64.6 µM (inactive) | 4.06 µM (inactive) | 2.74 µM (inactive) | 28.6 µM (inactive) | 4.2 µM (inactive) | 5.14 µM (inactive) | 7.33 µM (inactive) | 10.4 µM (inactive) | 23.1 µM (inactive) | 75 µM (inactive) | 36.5 µM (inactive) | 84.1 µM (inactive) | 30.1 µM (inactive) | 25.6 µM (inactive)
N=C(N)SCCCN | 1.39 µM (inactive) | 13.2 µM (inactive) | 20.4 µM (inactive) | 35.4 µM (inactive) | 24.2 µM (inactive) | 9.57 µM (inactive) | 25.2 µM (inactive) | 17.6 µM (inactive) | 3.3 µM (inactive) | 6.5 µM (inactive) | 21.6 µM (inactive) | 0.368 µM (active) | 3.83 µM (inactive) | 15 µM (inactive) | 3.52 µM (inactive) | 8.77 µM (inactive) | 16 µM (inactive) | 17.7 µM (inactive) | 32.2 µM (inactive) | 32.1 µM (inactive)
CC#CC(O)(C(=O)OC1CCCN(C)C1)C1=CC=CCC1 (stereo not given) | > 100 µM (inactive) | > 100 µM (inactive) | > 100 µM (inactive) | > 100 µM (inactive) | > 100 µM (inactive) | > 100 µM (inactive) | > 100 µM (inactive) | > 100 µM (inactive) | > 100 µM (inactive) | > 100 µM (inactive) | > 100 µM (inactive) | > 100 µM (inactive) | > 100 µM (inactive) | > 100 µM (inactive) | > 100 µM (inactive) | > 100 µM (inactive) | > 100 µM (inactive) | > 100 µM (inactive) | > 100 µM (inactive) | > 100 µM (inactive)
C=CCC(C(=O)O)c1ccccc1 (stereo not given) | > 100 µM (inactive) | > 100 µM (inactive) | > 100 µM (inactive) | > 100 µM (inactive) | > 100 µM (inactive) | > 100 µM (inactive) | > 100 µM (inactive) | > 100 µM (inactive) | > 100 µM (inactive) | > 100 µM (inactive) | > 100 µM (inactive) | > 100 µM (inactive) | > 100 µM (inactive) | > 100 µM (inactive) | > 100 µM (inactive) | > 100 µM (inactive) | > 100 µM (inactive) | > 100 µM (inactive) | > 100 µM (inactive) | > 100 µM (inactive)
O=[N+]([O-])C(/C=C(\Cl)[N+](=O)[O-])=C(Nc1ccccc1)Nc1ccccc1 | 1.44 µM (inactive) | 16.4 µM (inactive) | 17.1 µM (inactive) | 13.5 µM (inactive) | 11.9 µM (inactive) | 5.19 µM (inactive) | 15.5 µM (inactive) | 7.45 µM (inactive) | 2.6 µM (inactive) | 6.76 µM (inactive) | 17.3 µM (inactive) | 1.75 µM (inactive) | 17.2 µM (inactive) | 13.3 µM (inactive) | 9.84 µM (inactive) | 8.67 µM (inactive) | 6.21 µM (inactive) | 12.1 µM (inactive) | 7.43 µM (inactive) | 17.9 µM (inactive)
O=C(CC(=O)Nc1ccccc1)NNC(Sc1ccccc1)c1cc(/N=N/c2ccc(Br)cc2)ccc1O (stereo not given) | 0.417 µM (active) | > 10 µM (inactive) | 2.11 µM (inactive) | 8.83 µM (inactive) | 4.07 µM (inactive) | 0.394 µM (active) | 1.89 µM (inactive) | 2.09 µM (inactive) | 0.353 µM (active) | 1.56 µM (inactive) | 3.85 µM (inactive) | 0.0916 µM (active) | 5.07 µM (inactive) | 1.06 µM (active) | 0.973 µM (active) | 4.26 µM (inactive) | 8.13 µM (inactive) | 2.29 µM (inactive) | 3.51 µM (inactive) | 1.91 µM (inactive)
